In series [1] the test system is Staphylococcus aureus. The series is described as follows: Antibacterial agents against c5-resistant mutant of methicillin-resistant Staphylococcus aureus SA3 m3 assessed as absence of growth measured after 18 hrs by micro-dilution method. The format is functional.
Series [2] is described as follows: Metabolic stability in human liver microsomes assessed as half life at 2 uM preincubated for 5 mins followed by NADPH addition and measured for 35 mins by LC/MS analysis. The format is ADME, Microsome. The conditions noted are these: preincubation 5 min. Background: Liver microsomes are vesicles of endoplasmic reticulum, rich in cytochrome P450 enzymes.
Series [3] has as its system Staphylococcus aureus. Put plainly: In vivo antibacterial activity against methicillin-resistant Staphylococcus aureus SA3 infected in dorsal thorax of Drosophila melanogaster strain Oregon R assessed as survival time of Drosophila at 0.2 mg/ml measured upto 72 hrs. The format is functional.
For a further series, the system named is Bacillus subtilis. The series is described as follows: Antibacterial agents against Bacillus subtilis PS380 assessed as absence of growth measured after 18 hrs by micro-dilution method. It is filed as functional.
Series [4] deals with Staphylococcus aureus. The series is described as follows: Antibacterial agents against c5-resistant mutant of methicillin-resistant Staphylococcus aureus SA3 m4 assessed as absence of growth measured after 18 hrs by micro-dilution method. It is filed as functional. For orientation: Dilution methods test growth across graded concentrations, often in twofold steps.
Series [5] has as its system Staphylococcus aureus. Put plainly: Antibacterial agents against methicillin-resistant Staphylococcus aureus SA3 assessed as absence of growth measured after 18 hrs by micro-dilution method. The format is functional.
In series [6] the test system is Staphylococcus aureus. Put plainly: Antibacterial agents against c5-resistant mutant of methicillin-resistant Staphylococcus aureus SA3 m2 assessed as absence of growth measured after 18 hrs by micro-dilution method. It is filed as functional.
Series [7] deals with Staphylococcus aureus. Put plainly: Antibacterial agents against methicillin-resistant Staphylococcus aureus USA300 assessed as absence of growth measured after 18 hrs by micro-dilution method. It is filed as functional.
The test system of series [8] is Staphylococcus aureus. The series is described as follows: Induction of ROS generation in methicillin-resistant Staphylococcus aureus SA3 using hydroxyphenyl fluorescein at 0.09 ug/ml under anaerobic condition. The format is functional, organism-based. As to conditions: dose 0.09 µg/ml, TDE = time-dependent effect.
The nature of series [9]: Metabolic stability in human liver microsomes assessed as intrinsic clearance at 2 uM preincubated for 5 mins followed by NADPH addition and measured for 35 mins by LC/MS analysis. It is filed as ADME, Microsome. The conditions noted are these: read-out: CLH.
For series [10], the system named is Staphylococcus aureus. The series is described as follows: Induction of ROS generation in methicillin-resistant Staphylococcus aureus USA300 using hydroxyphenyl fluorescein at 0.09 ug/ml under anaerobic condition. The format is functional, organism-based. As to conditions: dose 0.09 µg/ml, TDE = time-dependent effect.
Series [11] relates to Staphylococcus aureus. Put plainly: Antibacterial agents against methicillin-sensitive Staphylococcus aureus Newman assessed as absence of growth measured after 18 hrs by micro-dilution method. The format is functional.
For series [12], the system named is Staphylococcus aureus. The series is described as follows: Antibacterial agents against methicillin-sensitive Staphylococcus aureus SA1 assessed as absence of growth measured after 18 hrs by micro-dilution method. It is filed as functional.
The test system of series [13] is Staphylococcus aureus. Put plainly: Antibacterial agents against c5-resistant mutant of methicillin-resistant Staphylococcus aureus SA3 m1 assessed as absence of growth measured after 18 hrs by micro-dilution method. The format is functional.
Series [14] concerns Staphylococcus aureus. Put plainly: In vivo antibacterial activity against methicillin-resistant Staphylococcus aureus SA3 infected in dorsal thorax of Drosophila melanogaster strain Oregon R assessed as median survival time of Drosophila at 0.04 to 0.2 mg/ml measured upto 72 hrs. It is filed as functional. As to conditions: dose 0.04-0.2 mg/ml.
In series [15] the test system is Staphylococcus aureus. The series is described as follows: Reduction in virulent activity of methicillin-resistant Staphylococcus aureus SA3 infected in dorsal thorax of Drosophila melanogaster strain Oregon R at 0.2 mg/ml measured upto 72 hrs. The format is functional, organism-based.
The next series concerns Escherichia coli. The series is described as follows: Antibacterial agents against gram negative Escherichia coli MG1655 assessed as reduction in colony forming unit at 0.05 to 0.2 ug/ml measured upto 10 hrs by LB agar medium method. It is filed as functional, organism-based. The conditions noted are these: dose 0.05-0.2 µg/ml.
In another series the test system is Pseudomonas aeruginosa. Put plainly: Antibacterial agents against gram negative Pseudomonas aeruginosa PA14 assessed as reduction in colony forming unit at 0.05 to 0.2 ug/ml measured upto 10 hrs by LB agar medium method. The format is functional, organism-based. The conditions noted are these: dose 0.05-0.2 µg/ml.

Calls of active or inactive are those of the source.

Experimental findings from ChEMBL document CHEMBL5500375, “Design, synthesis, and evaluation of N1,N3-dialkyldioxonaphthoimidazoliums as antibacterial agents against methicillin-resistant Staphylococcus aureus” (Eur J Med Chem, 2024) are described below.

A word on the MIC: it is the smallest concentration in the dilution series that meets the test's criterion for growth inhibition. By half-life is commonly meant the time needed for the level to fall by half in the phase considered.

Turning to `CCCCCC[n+]1c2c(n(CCOC)c1C)C(=O)c1ccccc1C2=O.[Br-]`, the MIC in the series on Staphylococcus aureus [1] is above 50 µg/mL; in the series on Bacillus subtilis, 6.25 µg/mL; in the series with Staphylococcus aureus [4], above 50 µg/mL; in the series with Staphylococcus aureus [5], 6.25 µg/mL; in the series on Staphylococcus aureus [6], above 50 µg/mL; in the series on Staphylococcus aureus [7] it was 6.25 µg/mL. Also, the MIC is 6.25 µg/mL with Staphylococcus aureus [11], 6.25 µg/mL with Staphylococcus aureus [12] and above 50 µg/mL in the series with Staphylococcus aureus [13]. In addition, in series [2], the half-life at 2 µM amounted to 33.7 min. Besides, the values for the Time in the series on Staphylococcus aureus [3] and in the series with Staphylococcus aureus [14] were 54 h and 38 h, respectively. Moreover, the Activity entry in the series on Staphylococcus aureus [8] and with Staphylococcus aureus [10] was “Tde” throughout. For the same compound, the CLint scaled at 2 µM in series [9] amounted to 37 mL/min/kg. Also, the result with Staphylococcus aureus [15] was inactive.

Consider POLYMYXIN B, for which the outcome in the series on Escherichia coli and with Pseudomonas aeruginosa was inactive.
